Test results taken from PubChem BioAssay AID248 (DTP/NCI, 2004).
Values joined by “and” are separate entries in the source; they are usually repeats but may differ in a detail not shown here. Identical values can stand only once. Toxic doses and inconclusive results are not listed. Cut-off read from the data, not from the text of the source: active = T/C of 150% or more; inactive = T/C below 125%.

System: L1210 leukemia ip in BDF1 mice, survival T/C
Assay: NCI In Vivo Anticancer Drug Screen. Data for tumor model L1210 Leukemia (intraperitoneal) in B6D2F1 (BDF1) mice
Conditions: endpoint: mean survival time, higher = longer survival
Outline: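 Value reflects the ratio of survival in compound-treated mice to survival in vehicle-treated controls, with both groups carrying the same transplanted tumor.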

[1] = dose: 100.0 mg/kg/injection, schedule: Q04DX003 (ip), vehicle: Klucel (hydroxypropylcellulose) (HPC)
[2] = dose: 200.0 mg/kg/injection, schedule: Q04DX003 (ip), vehicle: Klucel (hydroxypropylcellulose) (HPC)
[3] = dose: 400.0 mg/kg/injection, schedule: Q04DX003 (ip), vehicle: Klucel (hydroxypropylcellulose) (HPC)
[4] = dose: 75.0 mg/kg/injection, schedule: Q01DX001 (ip), vehicle: saline
[5] = dose: 100.0 mg/kg/injection, schedule: Q01DX009 (ip), vehicle: saline with Tween-80
[6] = dose: 100.0 mg/kg/injection, schedule: Q04DX003 (ip), vehicle: other
[7] = dose: 200.0 mg/kg/injection, schedule: Q01DX009 (ip), vehicle: saline with Tween-80
[8] = dose: 200.0 mg/kg/injection, schedule: Q04DX003 (ip), vehicle: other

Measured: T/C

CCCCCCCCCCCCCC(=O)O
inactive: [1] 92 % of control | [2] 94 % of control | [3] 95 % of control

O=C(Nc1ccc(C2=NCCN2)c(Cl)c1)c1ccc(C(=O)Nc2ccc(C3=NCCN3)c(Cl)c2)cc1
inactive: dose: 1.87 mg/kg/injection, schedule: Q01DX Z (ip), vehicle: carboxymethylcellulose (CMC) 124 % of control | dose: 3.75 mg/kg/injection, schedule: Q01DX Z (ip), vehicle: carboxymethylcellulose (CMC) 124 % of control | dose: 7.5 mg/kg/injection, schedule: Q01DX Z (ip), vehicle: carboxymethylcellulose (CMC) 117 % of control | dose: 30.0 mg/kg/injection, schedule: Q01DX Z (ip), vehicle: carboxymethylcellulose (CMC) 120 % of control | dose: 120.0 mg/kg/injection, schedule: Q01DX Z (ip), vehicle: carboxymethylcellulose (CMC) 86 % of control

O=S([O-])c1ccc(Cl)cc1.O=S([O-])c1ccc(Cl)cc1.[Zn+2]
inactive: [4] 101 % of control | dose: 150.0 mg/kg/injection, schedule: Q01DX001 (ip), vehicle: saline 101 % of control | dose: 300.0 mg/kg/injection, schedule: Q01DX001 (ip), vehicle: saline 110 % of control

CNS(=O)(=O)c1ccc(NC(=O)CCl)cc1
inactive: dose: 50.0 mg/kg/injection, schedule: Q01DX009 (ip), vehicle: saline with Tween-80 104 % of control | dose: 100.0 mg/kg/injection, schedule: Q01DX001 (ip), vehicle: other 104 % of control | [5] 110 % of control | [6] 101 % of control | dose: 200.0 mg/kg/injection, schedule: Q01DX001 (ip), vehicle: other 103 % of control | [7] 119 % of control | [8] 98 % of control | dose: 400.0 mg/kg/injection, schedule: Q01DX001 (ip), vehicle: other 100 % of control

CC([NH-])C(=O)[O-].[K+].[O]=[Co][O-] (stereo unspecified)
inactive: [4] 107 % of control

OC(Cc1cccc(/C=N/N2CCOCC2)n1)(C(F)(F)F)C(F)(F)F
inactive: [5] 91 % of control | [7] 98 % of control | dose: 400.0 mg/kg/injection, schedule: Q01DX009 (ip), vehicle: saline with Tween-80 89 % of control

CNC(=O)Oc1ccc2c(C)cc(=O)oc2c1
inactive: dose: 100.0 mg/kg/injection, schedule: Q04DX002 (ip), vehicle: saline 94 % of control | dose: 200.0 mg/kg/injection, schedule: Q04DX002 (ip), vehicle: saline 105 % of control

CCOC(=O)c1cnc(SC)nc1N(c1ccccc1)c1ccccc1
inactive: [1] 90 % of control | [2] 86 % of control | [3] 95 % of control

CCOC(=O)C(N)CCl (stereo unspecified)
inactive: dose: 6.25 mg/kg/injection, schedule: Q01DX001 (ip), vehicle: saline 100 % of control | dose: 12.5 mg/kg/injection, schedule: Q01DX001 (ip), vehicle: saline 101 % of control | dose: 25.0 mg/kg/injection, schedule: Q01DX001 (ip), vehicle: saline 101 % of control | dose: 50.0 mg/kg/injection, schedule: Q01DX001 (ip), vehicle: saline 99 % of control | dose: 100.0 mg/kg/injection, schedule: Q01DX001 (ip), vehicle: saline 97 % of control | dose: 200.0 mg/kg/injection, schedule: Q01DX001 (ip), vehicle: saline 95 % of control

CCCCCCCCCCCCCCCCCSc1ccc2ccccc2c1
inactive: dose: 100.0 mg/kg/injection, schedule: Q01DX009 (ip), vehicle: Klucel (hydroxypropylcellulose) (HPC) 97 % of control | dose: 200.0 mg/kg/injection, schedule: Q01DX009 (ip), vehicle: Klucel (hydroxypropylcellulose) (HPC) 100 % of control | dose: 400.0 mg/kg/injection, schedule: Q01DX009 (ip), vehicle: Klucel (hydroxypropylcellulose) (HPC) 95 % of control

CCCCSC(=O)C(C)O (stereo unspecified)
inactive: dose: 100.0 mg/kg/injection, schedule: Q04DX002 (ip), vehicle: saline with Tween-80 99 % of control | dose: 200.0 mg/kg/injection, schedule: Q04DX002 (ip), vehicle: saline with Tween-80 89 % of control | dose: 400.0 mg/kg/injection, schedule: Q04DX002 (ip), vehicle: saline with Tween-80 86 % of control

Cc1ccc(C(=O)CC(C(=O)c2ccccc2)c2ccccc2)cc1 (stereo unspecified)
inactive: dose: 75.0 mg/kg/injection, schedule: Q01DX009 (ip), vehicle: Klucel (hydroxypropylcellulose) (HPC) 92 % of control | [1] 94 % of control | dose: 150.0 mg/kg/injection, schedule: Q01DX009 (ip), vehicle: Klucel (hydroxypropylcellulose) (HPC) 95 % of control | [2] 104 % of control | dose: 300.0 mg/kg/injection, schedule: Q01DX009 (ip), vehicle: Klucel (hydroxypropylcellulose) (HPC) 95 % of control | [3] 98 % of control

O=C(CC(O)(C(F)(F)F)C(F)(F)F)c1ccc([N+](=O)[O-])cc1
inactive: dose: 50.0 mg/kg/injection, schedule: Q04DX003 (ip), vehicle: other 102 % of control | [6] 100 % of control | [8] 100 % of control | dose: 400.0 mg/kg/injection, schedule: Q04DX003 (ip), vehicle: other 104 % of control

O=C(c1ccccc1)c1cc(=O)[nH]c(=O)[nH]1
inactive: dose: 47.5 mg/kg/injection, schedule: Q01DX001 (ip), vehicle: Klucel (hydroxypropylcellulose) (HPC) 100 % of control | dose: 95.0 mg/kg/injection, schedule: Q01DX001 (ip), vehicle: Klucel (hydroxypropylcellulose) (HPC) 102 % of control | dose: 190.0 mg/kg/injection, schedule: Q01DX001 (ip), vehicle: Klucel (hydroxypropylcellulose) (HPC) 98 % of control

CCCCNC1=C(N2CC2)C(=O)C(NCCCC)=C(N2CC2)C1=O
inactive: dose: 1.25 mg/kg/injection, schedule: Q01DX001 (ip), vehicle: saline 105 % of control | dose: 1.25 mg/kg/injection, schedule: Q01DX009 (ip), vehicle: saline 110 % of control and 111 % of control | dose: 1.56 mg/kg/injection, schedule: Q04DX003 (ip), vehicle: Klucel (hydroxypropylcellulose) (HPC) 113 % of control | dose: 2.5 mg/kg/injection, schedule: Q01DX001 (ip), vehicle: saline 100 % of control | dose: 2.5 mg/kg/injection, schedule: Q01DX009 (ip), vehicle: saline 105 % of control and 109 % of control | dose: 3.12 mg/kg/injection, schedule: Q04DX003 (ip), vehicle: Klucel (hydroxypropylcellulose) (HPC) 121 % of control | dose: 5.0 mg/kg/injection, schedule: Q01DX001 (ip), vehicle: saline 98 % of control | dose: 5.0 mg/kg/injection, schedule: Q01DX009 (ip), vehicle: saline 118 % of control | dose: 10.0 mg/kg/injection, schedule: Q01DX001 (ip), vehicle: saline 105 % of control | dose: 10.0 mg/kg/injection, schedule: Q01DX009 (ip), vehicle: saline 114 % of control | dose: 12.5 mg/kg/injection, schedule: Q04DX003 (ip), vehicle: Klucel (hydroxypropylcellulose) (HPC) 110 % of control | dose: 18.0 mg/kg/injection, schedule: Q04DX003 (ip), vehicle: Klucel (hydroxypropylcellulose) (HPC) 112 % of control

O=C1NC(=S)S/C1=C\c1ccc([N+](=O)[O-])s1
inactive: dose: 100.0 mg/kg/injection, schedule: Q04DX002 (ip), vehicle: Klucel (hydroxypropylcellulose) (HPC) 90 % of control | dose: 200.0 mg/kg/injection, schedule: Q04DX002 (ip), vehicle: Klucel (hydroxypropylcellulose) (HPC) 93 % of control

CCOC(=O)C(N)Cc1cc(I)c(O)c(I)c1 (stereo unspecified)
inactive: dose: 100.0 mg/kg/injection, schedule: Q04DX003 (ip), vehicle: saline with Tween-80 95 % of control | dose: 200.0 mg/kg/injection, schedule: Q04DX003 (ip), vehicle: saline with Tween-80 97 % of control | dose: 400.0 mg/kg/injection, schedule: Q04DX003 (ip), vehicle: saline with Tween-80 101 % of control

CCOC(=O)C1CCC(=O)N1 (stereo unspecified)
inactive: [1] 96 % of control | [2] 98 % of control | [3] 98 % of control

CCCCCCN(CCCCCC)C1=C(Cl)C(=O)c2ccccc2C1=O
inactive: dose: 12.5 mg/kg/injection, schedule: Q01DX001 (ip), vehicle: carboxymethylcellulose (CMC) 97 % of control | dose: 25.0 mg/kg/injection, schedule: Q01DX001 (ip), vehicle: carboxymethylcellulose (CMC) 103 % of control | dose: 50.0 mg/kg/injection, schedule: Q01DX001 (ip), vehicle: carboxymethylcellulose (CMC) 96 % of control
